The values that follow come from patent publication US20140056952A1, “METHODS AND COATINGS FOR TREATING BIOFILMS” (President and Fellows of Harvard College, priority 2011, published 2014).

“Also recorded” adds a separate entry of the source.

Data set [1] deals with B. subtilis strain NCBI3610. Briefly: Pellicle (biofilm) formation inhibition assay in liquid biofilm-inducing medium. The conditions noted are these: for concentration needed for inhibition of biofilm formation: B. subtilis pellicle formation; for biofilm-inhibitory activity (library of polyamines): B. subtilis; for inhibition of pellicle formation: final concentration of 50 μM. It is filed as cell-based, Bacillus subtilis. The protocol:
Bacillus subtilis strains PY79, 3610 and their derivatives were grown in Luria-Bertani (LB) medium at 37° C. or MSgg medium (1) at 23° C. Solid media contained 1.5% Bacto agar. When appropriate, antibiotics were added at the following concentrations for growth of B. subtilis: 10 μg per ml of tetracycline, and 5 μg per ml of erythromycin, 500 μg per ml of spectinomycin.
B. subtilis strain NCBI3610 was grown at 22° C. in 12-well plates in liquid biofilm-inducing medium for 3 or 8 days. Conditioned medium (500 ml) from an 8-day-old culture was concentrated on the C-18 column and eluted step-wise with methanol.
To identify the second biofilm-inhibiting factor, high-performance liquid chromatography (HPLC) was carried out on the 25% methanol eluate using a phenyl-hexyl column. […] Cells of NCBI3610 were grown in fresh medium containing PBS buffer (control), norspermidine (100 μM), morpholine (100 μM) HPLC-purified fatty acid (˜100 μM), or spermidine (100 μM).
Pellicle formation of strain NCBI 3610 was tested in the presence of the indicated concentrations of norspermidine (FIG. 1D) or spermidine (FIG. 1E).
To identify features of norspermidine important for its biofilm disassembly activity, we tested a library of polyamines in our biofilm inhibition assay (FIGS. 9A, 9B, 10 and Table 2).
The effect of polyamines on pellicle formation by B. subtilis was examined. B. subtilis wild-type cells were grown to a mid-logarithmic phase and diluted 1:1000 in biofilm media applied with each polyamine to the final concentration of 50 μM.
The effect of cyclic polyamines on biofilm formation by B. subtilis was examined. B. subtilis wild-type cells were grown to a mid-logarithmic phase and diluted 1:1000 in biofilm media (18A) or in a medium applied with cyclic compound 1,5,9-Triazacyclododecane to the final concentration of 50 μM (18B).

The subject of data set [2] is exopolysaccharide of S. aureus cells. Nature of the data set: Fluorescence microscopy of exopolysaccharide staining. It is filed as cell-based, Staphylococcus aureus.
In data set [3] the test system is Proteus mirabilis strain BB2000. Briefly: Biofilm formation in polystyrene wells, crystal violet OD 595 nm. The class given is cell-based. The conditions noted are these: 1 mM, 48 hours at 30° C., vs no treatment control. The protocol: To examine the effects of polyamines on biofilm formation, wells were initially treated with water (no treatment), 1 mM norspermidine, and 1 mM norspermine in 3 ml M9+glucose before inoculation with P. mirabilis. Biofilms were permitted to grow for 48 hours at 30° C. without shaking The amount of biofilm formed was assessed with the standard assay of crystal violet staining (O'Toole G et al., Biofilm formation as microbial development, Annu Rev. Microbiol. (2000) 54:49-79); supernatant was removed from the wells and crystal violet (at […]) was then incubated in each well for 15 minutes at room temperature, followed by removal of the crystal violet from the wells and a subsequent washes with water. Any crystal violet attached the wells was next solubilized with 95% ethanol for 15 minutes at room temperature, and the subsequent optical density at 595 nm in each well was measured with a multiplate reader.

Data set [4] deals with B. subtilis wild-type cells. Nature of the data set: Biofilm formation on solid biofilm medium. The class given is cell-based, Bacillus subtilis. Conditions: 1 μl cells mixed with 1 μl (1 mM) polyamine. How it is done:
B. subtilis wild-type cells were grown to a mid-logarithmic phase and 1 μl of cells was mixed with 1 μl (1 mM) of each polyamine. The mixture was plated on solid biofilm medium.
B. subtilis wild-type cells were grown to a mid-logarithmic phase and 1 μl of cells was either mixed with PBS (18C) or mixed with 1 μl (1 mM) of each polyamine (18D). The mixture was plated on solid biofilm medium. “3*” refers to 1,5,9-Triazacyclododecane.

The test system of data set [5] is B. subtilis strain NCBI3610. Nature of the data set: Pellicle (biofilm) formation inhibition assay in liquid biofilm-inducing medium. The class given is cell-based, Bacillus subtilis.
In another data set the test system is E. coli strain MC4100. Briefly: Submerged biofilm formation, crystal violet staining. It is filed as cell-based, Escherichia coli. The conditions noted are these: library tested at 500 μM. How it is done: (§1) The compounds were tested at 500 μM. Biofilm formation was visualized by crystal violet staining of submerged biofilms.
(§2) Whether polyamines might prevent biofilm formation by other bacteria that produce an exopolysaccharide matrix was examined. […] The compounds were tested at 500 μM. Biofilm formation was visualized by crystal violet staining of submerged biofilms.
(§3) In testing E. coli, the biofilm-proficient strain MC4100 was selected because a major component of exopolysacchride is colanic acid (Danese et al., 2000; Price and Raivio, 2009).

The next data set relates to TasA-mCherry. Briefly: Fluorescence microscopy of TasA-mCherry fusion. It is filed as cell-based, Bacillus subtilis. The conditions noted are these: norspermidine 50 μM. How it is done:
NCBI 3610 containing the tasA-mCherry fusion (DR30) was grown without shaking in a biofilm medium (upper row) or in the same medium applied with norspermidine (50 μM, lower row). Cells were washed in PBS, and visualized by fluorescence microscopy.
(§4) To investigate further, exopolysaccharide was visualized by fluorescence microscopy using a conjugate of the carbohydrate-binding protein concanavalin A with Texas Red (FIG. 5) (McSwain et al., 2005). As evidence of specificity, the conjugate decorated wild-type cells but not cells from a mutant (Δeps) blocked in exopolysaccharide production (FIG. 6A). Indeed, at an exposure at which concanavalin A staining with the wild type strain gave an extremely bright fluorescent signal, little or no signal could be detected for the Δeps mutant, except at long exposures and enhanced brightness (FIG. 6A). Next, we investigated the effects of norspermidine and spermidine. […] Therefore, the difference in the staining was evidently due to differential levels of cell-associated exopolysaccharide. […] Thus, while not being bound to any theory, it is believed that norspermidine disrupts the matrix and by targeting exopolysaccharide.

Another data set has as its system S. aureus strain SCO1. Briefly: Submerged biofilm formation, crystal violet staining. The class given is cell-based, Staphylococcus aureus. The conditions noted are these: norspermidine 10 μM, norspermine 100 μM; library at 500 μM. How it is done:
as §1, §2
Similarly, FIGS. 19A-H show the results of S. aureus strain SC-01 grown to a mid-logarithmic phase and diluted 1:1000 into a 12 wells plate in a TSB medium applied with NaCl (3%) and Glucose (0.5%). The medium was applied with norspermidine (10 μM), norspermine (100 μM) or spermine (500 μM). Planktonic cells were removed (19A-D). Wells were washed once, and incubated with Crystal Violet (0.1%) for 15 mins. Wells were washed twice in DDW (19E-H).
The effect of certain polyamines combined with biofilm-inhibiting D-amino acids in Staphylococcus was examined. S. aureus strain SC-01 was grown to a mid-logarithmic phase and diluted 1:1000 into a 12 wells plate in a TSB medium applied with NaCl (3%) and Glucose (0.5%). The medium was applied with either norspermidine or D-tyrosine or both as indicated below each panel. Planktonic cells were removed Wells were washed once, and incubated with Crystal Violet (0.1%) for 15 mins. Wells were washed twice in DDW.

For data set [6], the system named is exopolysaccharide of B. subtilis NCBI 3610 cells. Briefly: Fluorescence microscopy of exopolysaccharide with concanavalin A-Texas Red. It is filed as cell-based, Bacillus subtilis. Conditions: norspermidine 25 μM, spermidine 1 mM.
Source text: The cells were washed in PBS and stained for exopolysaccharide with a conjugate of concanavalin A with Texas-Red.
as §4

Data set [7] relates to exopolysaccharide of E. coli cells. Briefly: Fluorescence microscopy of exopolysaccharide staining. It is filed as cell-based, Escherichia coli.
Source text: as §3

For data set [8], the system named is P. aeriginosa strain PA14. Briefly: Biofilm formation on solid M63 medium. The class given is cell-based, Pseudomonas aeruginosa. The conditions noted are these: 1 μl cells mixed with 1 μl (10 mM) polyamine. The protocol: The effect of polyamines on biofilm formation by Pseudomonas was examined. P. aeriginosa strain PA14 were grown to a mid-logarithmic phase and 1 μl of cells was mixed with 1 μl (10 mM) of each polyamine. The mixture was plated on solid M63 medium.

The subject of a further data set is B. subtilis NCBI 3610. Briefly: Cell growth in MSgg medium with shaking. The conditions noted are these: norspermidine 100 μM. It is filed as cell-based, Bacillus subtilis. The protocol:
NCBI 3610 was grown in MSgg medium applied with norspermidine (100 μM) with shaking or in untreated medium served as a control (NT). […] Therefore, whether norspermidine interacts directly with the exopolysaccharide was investigated. To attempt to detect such an interaction, dynamic light scattering was used. Dynamic scattering is a standard procedure for measuring the average radius of polymers in which a laser beam is transmitted through a sample containing polymers in solution (Berne, 1976; Orgad et al., 2011; Vinayahan et al., 2010).

For another data set, the system named is B. subtilis pellicles. Briefly: Disassembly of pre-formed pellicles (OD600 of medium vs pellicle). Conditions: 250 μM applied at day 2, additional 24 hrs. The class given is cell-based, Bacillus subtilis. The protocol:
After incubation for the indicated times, pellicle material and the medium were separated and each brought to a volume of 3 ml. After mild sonication, the OD600 was determined for each sample. The % of disassembly represents the OD600 of the medium as a percent of the sum of the OD600 of the medium and the OD600 of the pellicle. […] Thus, D-amino acids and norspermidine act synergistically in preventing biofilm formation and triggering the disassembly of mature biofilms.
Whether polyamines could trigger disassembly of biofilms formed by B. subtilis was examined. B. subtilis wild-type cells grown in liquid biofilm medium. Cells were grown to mid-logarithmic phase and diluted 1:1000 in liquid biofilm media. At day 2, pre-formed pellicles were applied with either PBS (A) or norspermine (250 μM) (B). Pellicles were incubated for additional 24 hrs.

As for 1,3-diaminopropane [Molecule 6], in data set [1], the “concentration needed for inhibition of biofilm formation” value is more than 5 mM.
Consider `NCCCNCCCN` [Molecule 1, N-(3-aminopropyl)propane-1,3-diamine], for which, in data set [2], the “staining of exopolysaccharide, S. aureus” value is listed as “markedly diminished staining”. For the same compound, the “reduction of Proteus mirabilis biofilm formation” value in data set [3] was “sufficient to reduce biofilm formation”. In data set [4], the “inhibition of biofilm formation on solid biofilm medium” value (“inhibition … on solid biofilm medium” below) is “inhibit biofilm formation”. Moreover, the “effect on residual pellicle of exopolysaccharide mutant” value in data set [5] (ΔepsH, DS76, 25 μM norspermidine) was “little effect”. In addition, the “effect on pellicle formation by amyloid fiber mutant” value in [5] (ΔtasA, FC55, 25 μM norspermidine) is reported as “abolished pellicle formation”. The “inhibition of biofilm formation by E. coli” value in the data set with E. coli strain MC4100 is on record as “inhibited the formation of submerged biofilms”. Besides, the “effect on protein component of the matrix (TasA-mCherry)” value in the data set with TasA-mCherry is “little or no effect”. Also, the “inhibition of biofilm formation by S. aureus” value in the data set on S. aureus strain SCO1 was “inhibited the formation of submerged biofilms; also recorded: inhibit biofilm formation”. Further, in data set [1], the “biofilm-inhibitory activity (library of polyamines)” value (from here on “biofilm-inhibitory activity”) is “exhibited biofilm-inhibitory activity” and the “inhibition of pellicle formation” value is on record as “inhibit biofilm formation”. The “MBIC- Minimal Biofilm Inhibitory Concentration” value in data set [1] (B. subtilis biofilm inhibition assay) is 25 to 50 µM. The “concentration at which biofilm formation was inhibited” value in data set [1] (authentic norspermidine, NCBI3610 pellicle) came out at 25 µM. The “pattern of exopolysaccharide staining” value in data set [6] is listed as “disrupted the relatively uniform, cell-associated pattern of staining”. The “staining of exopolysaccharide, E. coli” value in data set [7] is given as “markedly diminished staining”. Besides, the “inhibition of biofilm formation by Pseudomonas” value in data set [8] is on record as “inhibit biofilm formation”. In the data set on B. subtilis NCBI 3610, the cell growth entry is given as “not significantly inhibited”.
On to `NCCCNCCCNCCCN` [Molecule 2, N′-[3-(3-aminopropylamino)propyl]propane-1,3-diamine], for which the “disassembly of pre-formed pellicles” value in the data set with B. subtilis pellicles was “triggered disassembly”. For the same compound, in data set [3], the “reduction of Proteus mirabilis biofilm formation” value is “sufficient to reduce biofilm formation”. Further, the “inhibition … on solid biofilm medium” value in data set [4] is on record as “inhibit biofilm formation”. Besides, the “inhibition of biofilm formation by E. coli” value with E. coli strain MC4100 was “inhibited the formation of submerged biofilms”. For the same compound, the “inhibition of biofilm formation by S. aureus” value with S. aureus strain SCO1 is reported as “inhibited the formation of submerged biofilms; also recorded: inhibit biofilm formation”. In [1], the “biofilm-inhibitory activity” value is on record as “exhibited biofilm-inhibitory activity” and the “inhibition of pellicle formation” value was “inhibit biofilm formation”. For the same compound, in [8], the “inhibition of biofilm formation by Pseudomonas” value is “inhibit biofilm formation”.
Take `NCCCCNCCCN` [Molecule 3, spermidine, reference compound]: in [4], the “inhibition … on solid biofilm medium” value is on record as “do not”. In [1], the “concentration needed for inhibition of biofilm formation” value is on record as more than 2 mM and the “inhibition of pellicle formation” value is “do not”. For the same compound, the “pattern of exopolysaccharide staining” value in data set [6] is reported as “No such effect”.
With `NCCCN(CCCN)CCCN` [Molecule 21, N^1,N^1-bis(3-aminopropyl)propane-1,3-diamine], the “biofilm-inhibitory activity” value in data set [1] is “did not block activity”.
With `C1CNCCCNCCCNC1` [c, 1,5,9-triazacyclododecane], the “inhibition … on solid biofilm medium” value in [4] is “inhibits biofilm formation”. The “inhibition of pellicle formation” value in [1] is listed as “inhibits biofilm formation”.
As to speramide [reference compound], the “inhibition … on solid biofilm medium” value in [4] is on record as “do not”. In [1], the “inhibition of pellicle formation” value was “do not”.
